# Tested on: Math1-estrogen receptor (ER) fusion protein
# Assay: Tamoxifen-inducible Math1-estrogen receptor (ER) fusion construct in transfected cells
# Format: cell-based
# Details: addition of tamoxifen to the transfected cells
# From the text: This Example describes a system in which administration of tamoxifen, a […], induces expression of Math1. A Math1-estrogen receptor (ER) fusion protein, where the ER has been mutated so that it selectively binds to tamoxifen rather than estrogen, is constitutively expressed. In the absence of tamoxifen, the Math1-ER construct remains quiescent within the cytosol where it is inactivated by heat shock proteins. […] The sequence of Math1 is given above.
structure (smiles),measurement,value
CC/C(=C(\c1ccccc1)c1ccc(OCCN(C)C)cc1)c1ccccc1 [tamoxifen],localization of the Math1-ER construct to the nucleus,dose-dependent localization of the Math1-ER construct to the nucleus
